{
  "source": "paper PMC12926979",
  "about": "“Ectopic, hepatic GLP-1R agonism enhances the weight loss efficacy of GLP-1 analogues” (Molecular Metabolism, 2026)",
  "key": {"[1]": {"target": "T1, hGLP-1R (Homo sapiens, UniProt P43220)", "T1 construct": "expressed in transfected cells", "T1 sequence (P43220 24-463)": "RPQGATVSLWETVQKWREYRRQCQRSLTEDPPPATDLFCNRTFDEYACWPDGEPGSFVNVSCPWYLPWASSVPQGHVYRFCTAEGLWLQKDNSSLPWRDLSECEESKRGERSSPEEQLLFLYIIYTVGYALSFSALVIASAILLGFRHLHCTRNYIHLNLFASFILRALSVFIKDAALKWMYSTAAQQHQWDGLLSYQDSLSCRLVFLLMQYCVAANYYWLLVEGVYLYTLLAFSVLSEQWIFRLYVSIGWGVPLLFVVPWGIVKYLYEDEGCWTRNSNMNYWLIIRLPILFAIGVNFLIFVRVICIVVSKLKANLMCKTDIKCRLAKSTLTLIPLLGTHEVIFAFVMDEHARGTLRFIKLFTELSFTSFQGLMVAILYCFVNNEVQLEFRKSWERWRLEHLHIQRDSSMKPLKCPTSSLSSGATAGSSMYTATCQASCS", "conditions": "cited from earlier work", "source_text": "Second, agonism of the ectopic, hepatic GLP-1R creates a novel mechanism of drug clearance and may have effects on biodistribution."}, "[2]": {"assay": "Pharmacokinetic study in WT DIO mice dosed with control or Glp1r expressing AAV", "format": "in vivo, mouse", "conditions": "Glp1r AAV treated vs control groups; Figure 2K", "procedure": "Male C57Bl6 mice were randomized and evenly distributed to test groups (n = 8 per group) according to body weight. Animals received tail vein injection of the control AAV or mGLP-1R expressing AAV at a dose of 10^12 GC per mouse on day −7 for each study. […] Treatments were administered via daily SC injection for the duration of the study; dosage is indicated within each figure. Dose escalation regimens for each peptide were determined based on previously published studies. Body weight and food intake was measured every other day throughout the study."}, "[3]": {"system": "C57Bl6 mice", "assay": "Cardiovascular radiotelemetry (heart rate, mean arterial pressure)", "format": "in vivo, mouse", "conditions": "Glp1r AAV treated mice; 0.5, 1 and 3 nmol/kg SC; Figure 2H", "source_text": "Male C57Bl6 mice (8–10 weeks old) were anesthetized with isoflurane and surgically implanted with pressure transmitters (PA-C10, DSI), with the catheter inserted into the left carotid artery and the body of the transmitter between the outer skin layer and abdomen wall in the left flank of the mouse. After recovering, they were singly housed and monitored in their home cages. Mice were given control and experimental AAV virus via tail vein injections at least 7 days prior to CV study. Transmitters were turned on via magnets and SC vehicle injections were administered 2 h after the onset of the light phase for baseline measurements. At t = 24 h, mice were grouped if needed and SC compound injections began. Stressors were allowed only from 9:00 AM to 11:00 AM during the light phase, with continuous sampling throughout the day. Measurements of pulse pressure, arterial pressures, and heart rate values were extracted with the DataQuest A.R.T. 4.1 software and averaged into 3-hour bins for analysis."}},
  "data": [
    {"molecule": "tirzepatide", "values": [
      {"measurement": "GLP-1R internalization profile", "setting": "[1]", "result": "low receptor internalising profile"}
    ]},
    {"molecule": "CC[C@H](C)[C@H](NC(=O)[C@H](Cc1ccccc1)NC(=O)[C@H](CCC(=O)O)NC(=O)[C@H](CCCCNC(=O)COCCOCCNC(=O)COCCOCCNC(=O)CC[C@H](NC(=O)CCCCCCCCCCCCCCCCC(=O)O)C(=O)O)NC(=O)[C@H](C)NC(=O)[C@H](C)NC(=O)[C@H](CCC(N)=O)NC(=O)CNC(=O)[C@H](CCC(=O)O)NC(=O)[C@H](CC(C)C)NC(=O)[C@H](Cc1ccc(O)cc1)NC(=O)[C@H](CO)NC(=O)[C@H](CO)NC(=O)[C@@H](NC(=O)[C@H](CC(=O)O)NC(=O)[C@H](CO)NC(=O)[C@@H](NC(=O)[C@H](Cc1ccccc1)NC(=O)[C@@H](NC(=O)CNC(=O)[C@H](CCC(=O)O)NC(=O)C(C)(C)NC(=O)[C@@H](N)Cc1cnc[nH]1)[C@@H](C)O)[C@@H](C)O)C(C)C)C(=O)N[C@@H](C)C(=O)N[C@@H](Cc1c[nH]c2ccccc12)C(=O)N[C@@H](CC(C)C)C(=O)N[C@H](C(=O)N[C@@H](CCCNC(=N)N)C(=O)NCC(=O)N[C@@H](CCCNC(=N)N)C(=O)NCC(=O)O)C(C)C", "note": "[semaglutide]", "values": [
      {"measurement": "semaglutide clearance with ectopic hepatic GLP-1R", "setting": "[2]", "result": "significant increase in semaglutide clearance"},
      {"measurement": "Heart rate effect of semaglutide + Glp1r AAV", "setting": "[3]", "result": "reduces this effect"}
    ]}
  ]
}
